Measurements: patent US20020111274A1, “1-alkyl-3-[1-(substituted phenyl) benzotriazol-6-yl] uracils” (BASF Aktiengesellschaft, priority 2000, published 2002)

Key:
Set-up in all cases: scale not given here
[1] = test system: ORYSAT Rice, Tebonnet; test: Preemergence herbicidal evaluation, ORYSAT; type: in vivo, Oryza sativa, (L.); details: preemergence
Method in brief: (§1)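 First, seed is blended with potting soil and sown over roughly an inch of soil per cup. Next, the surface is sprayed with an aqueous acetone solution delivering about 0.013–0.800 kg/ha. Finally, cups are grown in the greenhouse and rated after 4–5 weeks.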

[2] = test system: CHEAL Lambsquarters, Common; test: Preemergence herbicidal evaluation, CHEAL; type: in vivo, Chenopodium album, L.; details: preemergence
Method in brief: as §1

[3] = test system: CHEAL Lambsquarters, Common; test: Postemergence herbicidal evaluation, CHEAL; type: in vivo, Chenopodium album, L.; details: postemergence spray, rated about two-three weeks after treatment
Method in brief: (§2)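 Plants are raised for roughly two weeks, then treated postemergence with compound dispersed in acetone/water (80/20) plus 1.0% seed oil adjuvant, at rates of about 0.006 kg to 0.400 kg per hectare. After greenhouse care, damage is scored two to three weeks later.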

[4] = test system: TRZAWR Wheat, Winter, cv Riband; test: Postemergence herbicidal evaluation, TRZAWR; type: in vivo, Triticum aestivum; details: postemergence spray, rated about two-three weeks after treatment
Method in brief: as §2

[5] = test system: GALAP Galium; test: Postemergence herbicidal evaluation, GALAP; type: in vivo, Galium aparine; details: postemergence spray, rated about two-three weeks after treatment
Method in brief: as §2

[6] = test system: AMBEL Ragweed, Common; test: Preemergence herbicidal evaluation, AMBEL; type: in vivo, Ambrosia artemisifolia, L.; details: preemergence
Method in brief: as §1

[7] = test system: SETVI Foxtail, Green; test: Preemergence herbicidal evaluation, SETVI; type: in vivo, Setaria viridis, (L.) Beau; details: preemergence
Method in brief: as §1

[8] = test system: ORYSAT Rice, Tebonnet; test: Postemergence herbicidal evaluation, ORYSAT; type: in vivo, Oryza sativa, (L.); details: postemergence spray, rated about two-three weeks after treatment
Method in brief: as §2

[9] = test system: GLXMAW Soybean, Williams; test: Postemergence herbicidal evaluation, GLXMAW; type: in vivo, Glycine max, (L.) Merr. cv Williams; details: postemergence spray, rated about two-three weeks after treatment
Method in brief: as §2

[10] = test system: CASOB Sicklepod; test: Preemergence herbicidal evaluation, CASOB; type: in vivo, Cassia obtusifolia, L.; details: preemergence
Method in brief: as §1

[11] = test system: ABUTH Velvetleaf; test: Preemergence herbicidal evaluation, ABUTH; type: in vivo, Abutilon theophrasti, Medic.; details: preemergence
Method in brief: as §1

[12] = test system: CASOB Sicklepod; test: Postemergence herbicidal evaluation, CASOB; type: in vivo, Cassia obtusifolia, L.; details: postemergence spray, rated about two-three weeks after treatment
Method in brief: as §2

[13] = test system: SETVI Foxtail, Green; test: Postemergence herbicidal evaluation, SETVI; type: in vivo, Setaria viridis, (L.) Beau; details: postemergence spray, rated about two-three weeks after treatment
Method in brief: as §2

[14] = test system: GLXMAW Soybean, Williams; test: Preemergence herbicidal evaluation, GLXMAW; type: in vivo, Glycine max, (L.) Merr. cv Williams; details: preemergence
Method in brief: as §1

[15] = test system: ZEAMX Corn, Field; test: Preemergence herbicidal evaluation, ZEAMX; type: in vivo, Zea mays, L. (Sammel-Bezeichnung); details: preemergence
Method in brief: as §1

[16] = test system: AMBEL Ragweed, Common; test: Postemergence herbicidal evaluation, AMBEL; type: in vivo, Ambrosia artemisifolia, L.; details: postemergence spray, rated about two-three weeks after treatment
Method in brief: as §2

[17] = test system: IPOHE Morningglory, Ivyleaf; test: Preemergence herbicidal evaluation, IPOHE; type: in vivo, Ipomoea hederacea, (L.) Jacq.; details: preemergence
Method in brief: as §1

[18] = test system: IPOHE Morningglory, Ivyleaf; test: Postemergence herbicidal evaluation, IPOHE; type: in vivo, Ipomoea hederacea, (L.) Jacq.; details: postemergence spray, rated about two-three weeks after treatment
Method in brief: as §2

[19] = test system: TRZAWR Wheat, Winter, cv Riband; test: Preemergence herbicidal evaluation, TRZAWR; type: in vivo, Triticum aestivum; details: preemergence
Method in brief: as §1

[20] = test system: ECHOG Barnyardgrass; test: Postemergence herbicidal evaluation, ECHOG; type: in vivo, Echinochloa crus-galli, (L.) Beau; details: postemergence spray, rated about two-three weeks after treatment
Method in brief: as §2

[21] = test system: GALAP Galium; test: Preemergence herbicidal evaluation, GALAP; type: in vivo, Galium aparine; details: preemergence
Method in brief: as §1

[22] = test system: ZEAMX Corn, Field; test: Postemergence herbicidal evaluation, ZEAMX; type: in vivo, Zea mays, L. (Sammel-Bezeichnung); details: postemergence spray, rated about two-three weeks after treatment
Method in brief: as §2

[23] = test system: ECHOG Barnyardgrass; test: Preemergence herbicidal evaluation, ECHOG; type: in vivo, Echinochloa crus-galli, (L.) Beau; details: preemergence
Method in brief: as §1

[24] = test system: ABUTH Velvetleaf; test: Postemergence herbicidal evaluation, ABUTH; type: in vivo, Abutilon theophrasti, Medic.; details: postemergence spray, rated about two-three weeks after treatment
Method in brief: as §2

COc1ccc(Cl)cc1-n1nnc2cc(F)c(-n3c(=O)cc(C(F)(F)F)n(C)c3=O)cc21 [Example 30]
4.5: Postemergence herbicidal rating TRZAWR ([4]; 0.062 kg/ha) | Postemergence herbicidal rating ORYSAT ([8]; 0.062 kg/ha) | Postemergence herbicidal rating ZEAMX ([22]; 0.008 kg/ha) | Postemergence herbicidal rating ZEAMX ([22]; 0.016 kg/ha)
6.0: AMBEL herbicidal rating ([6]; rate 0.125 kg/ha) | ABUTH herbicidal rating ([11]; rate 0.125 kg/ha) | Postemergence herbicidal rating SETVI ([13]; 0.016 kg/ha) | Postemergence herbicidal rating ECHCG ([20]; 0.062 kg/ha)
8.0: Postemergence herbicidal rating GLXMAW ([9]; 0.032 kg/ha) | Postemergence herbicidal rating GLXMAW ([9]; 0.062 kg/ha) | Postemergence herbicidal rating CASOB ([12]; 0.062 kg/ha)
6.5: Postemergence herbicidal rating GLXMAW ([9]; 0.008 kg/ha) | Postemergence herbicidal rating GLXMAW ([9]; 0.016 kg/ha)
9.0: CHEAL herbicidal rating ([2]; rate 0.016 kg/ha) | CHEAL herbicidal rating ([2]; rate 0.032 kg/ha) | CHEAL herbicidal rating ([2]; rate 0.062 kg/ha) | CHEAL herbicidal rating ([2]; rate 0.125 kg/ha) | Postemergence herbicidal rating CHEAL ([3]; 0.008 kg/ha) | Postemergence herbicidal rating CHEAL ([3]; 0.016 kg/ha) | Postemergence herbicidal rating CHEAL ([3]; 0.032 kg/ha) | Postemergence herbicidal rating CHEAL ([3]; 0.062 kg/ha) | SETVI herbicidal rating ([7]; rate 0.062 kg/ha) | SETVI herbicidal rating ([7]; rate 0.125 kg/ha) | Postemergence herbicidal rating SETVI ([13]; 0.032 kg/ha) | Postemergence herbicidal rating SETVI ([13]; 0.062 kg/ha) | Postemergence herbicidal rating AMBEL ([16]; 0.008 kg/ha) | Postemergence herbicidal rating AMBEL ([16]; 0.016 kg/ha) | Postemergence herbicidal rating AMBEL ([16]; 0.032 kg/ha) | Postemergence herbicidal rating AMBEL ([16]; 0.062 kg/ha) | Postemergence herbicidal rating IPOHE ([18]; 0.008 kg/ha) | Postemergence herbicidal rating IPOHE ([18]; 0.016 kg/ha) | Postemergence herbicidal rating IPOHE ([18]; 0.032 kg/ha) | Postemergence herbicidal rating IPOHE ([18]; 0.062 kg/ha) | Postemergence herbicidal rating ABUTH ([24]; 0.008 kg/ha) | Postemergence herbicidal rating ABUTH ([24]; 0.016 kg/ha) | Postemergence herbicidal rating ABUTH ([24]; 0.032 kg/ha) | Postemergence herbicidal rating ABUTH ([24]; 0.062 kg/ha)
1.0: ORYSAT herbicidal rating ([1]; rate 0.032 kg/ha) | Postemergence herbicidal rating GALAP ([5]; 0.008 kg/ha) | CASOB herbicidal rating ([10]; rate 0.032 kg/ha) | GLXMAW herbicidal rating ([14]; rate 0.016 kg/ha) | GLXMAW herbicidal rating ([14]; rate 0.032 kg/ha) | GLXMAW herbicidal rating ([14]; rate 0.062 kg/ha) | ZEAMX herbicidal rating ([15]; rate 0.016 kg/ha) | TRZAWR herbicidal rating ([19]; rate 0.032 kg/ha) | ECHCG herbicidal rating ([23]; rate 0.016 kg/ha)
4.0: ORYSAT herbicidal rating ([1]; rate 0.125 kg/ha) | Postemergence herbicidal rating TRZAWR ([4]; 0.032 kg/ha) | Postemergence herbicidal rating GALAP ([5]; 0.032 kg/ha) | Postemergence herbicidal rating GALAP ([5]; 0.062 kg/ha) | SETVI herbicidal rating ([7]; rate 0.016 kg/ha) | Postemergence herbicidal rating ORYSAT ([8]; 0.032 kg/ha) | Postemergence herbicidal rating CASOB ([12]; 0.016 kg/ha) | IPOHE herbicidal rating ([17]; rate 0.062 kg/ha) | Postemergence herbicidal rating ECHCG ([20]; 0.016 kg/ha) | Postemergence herbicidal rating ECHCG ([20]; 0.032 kg/ha) | GALAP herbicidal rating ([21]; rate 0.125 kg/ha)
3.5: Postemergence herbicidal rating TRZAWR ([4]; 0.008 kg/ha) | Postemergence herbicidal rating TRZAWR ([4]; 0.016 kg/ha) | Postemergence herbicidal rating ORYSAT ([8]; 0.008 kg/ha) | Postemergence herbicidal rating ORYSAT ([8]; 0.016 kg/ha)
7.0: SETVI herbicidal rating ([7]; rate 0.032 kg/ha) | Postemergence herbicidal rating CASOB ([12]; 0.032 kg/ha) | Postemergence herbicidal rating SETVI ([13]; 0.008 kg/ha) | ZEAMX herbicidal rating ([15]; rate 0.125 kg/ha) | ECHCG herbicidal rating ([23]; rate 0.062 kg/ha) | ECHCG herbicidal rating ([23]; rate 0.125 kg/ha)
0.0: ORYSAT herbicidal rating ([1]; rate 0.016 kg/ha) | AMBEL herbicidal rating ([6]; rate 0.016 kg/ha) | AMBEL herbicidal rating ([6]; rate 0.032 kg/ha) | CASOB herbicidal rating ([10]; rate 0.016 kg/ha) | CASOB herbicidal rating ([10]; rate 0.062 kg/ha) | ABUTH herbicidal rating ([11]; rate 0.016 kg/ha) | IPOHE herbicidal rating ([17]; rate 0.016 kg/ha) | IPOHE herbicidal rating ([17]; rate 0.032 kg/ha) | TRZAWR herbicidal rating ([19]; rate 0.016 kg/ha)
3.0: Postemergence herbicidal rating GALAP ([5]; 0.016 kg/ha) | AMBEL herbicidal rating ([6]; rate 0.062 kg/ha) | Postemergence herbicidal rating CASOB ([12]; 0.008 kg/ha) | ZEAMX herbicidal rating ([15]; rate 0.032 kg/ha) | IPOHE herbicidal rating ([17]; rate 0.125 kg/ha) | GALAP herbicidal rating ([21]; rate 0.062 kg/ha)
2.0: ORYSAT herbicidal rating ([1]; rate 0.062 kg/ha) | CASOB herbicidal rating ([10]; rate 0.125 kg/ha) | GLXMAW herbicidal rating ([14]; rate 0.125 kg/ha) | TRZAWR herbicidal rating ([19]; rate 0.062 kg/ha) | TRZAWR herbicidal rating ([19]; rate 0.125 kg/ha) | Postemergence herbicidal rating ECHCG ([20]; 0.008 kg/ha) | GALAP herbicidal rating ([21]; rate 0.016 kg/ha) | GALAP herbicidal rating ([21]; rate 0.032 kg/ha)
5.0: ZEAMX herbicidal rating ([15]; rate 0.062 kg/ha) | Postemergence herbicidal rating ZEAMX ([22]; 0.032 kg/ha) | Postemergence herbicidal rating ZEAMX ([22]; 0.062 kg/ha) | ECHCG herbicidal rating ([23]; rate 0.032 kg/ha)
